# From patent US8658390B2, “Method for detecting muscle degenerative diseases, and method for determining therapeutic efficacy on the diseases” (Osaka Bioscience Institute, priority 2009, dated 2014)
# Key:
# CXMDJ [1] = assay: Urine Tetranor-PGDM concentration in muscular dystrophy dog CXMDJ (HPLC-MS/MS); type: in vivo
# Source text: Muscular dystrophy dog: CXMDJ (CXMDJ; available from National Center of Neurology and Psychiatry)
# CXMDJ was orally administered with a solvent (0.5% methylcellulose solution) or test compound 2 for about 1 year, followed by the administration of test compound 2 for the solvent-administrated dog, and the solvent for the test compound 2-administered dog. Urine was collected before switching from the solvent to test compound 2, and from test compound 2 to the solvent. Urine was collected over time after the administered solution was switched. For comparison, urine was also collected from normal beagles used as a control.
# The urine (200 μL) collected from the mice or dogs was mixed with 5 ng of deuterium-labeled Tetranor-PGDM-d6 (Cayman Chemical) used as internal standard. The volume was adjusted to 2 mL with purified water, and pH was adjusted to 3. The urine was then injected to a Sep-Pak Vac C18 cartridge (Waters) equilibrated with acetonitrile (5 mL) and purified water (5 mL). The sample was washed with a 10% acetonitrile solution (5 mL) prepared using purified water, and with hexane (10 mL), and eluted with ethyl acetate (5 mL) before being dried under a stream of nitrogen. The residue was dissolved in a 10% acetonitrile solution (100 μL) prepared using purified water, and used as a measurement sample.
# The pretreated urine sample was used for the measurement of Tetranor-PGDM levels. […] MRM (Multiple Reaction Monitoring) was used for quantification. In this technique, only the true parent ions are specifically selected from the mass of the parent ions (precursor ion) and of the fragment ions resulting from CID (collision-induced dissociation), and the parent ions are accurately quantified from the area of the selected ions. […] The fragment ions are then isolated in a second mass analyzer (Q3), and detected at the detector provided downstream. Tetranor-PGDM (mass number 328) was detected by using any of the ions with a m/z (mass number charge) of 155, 143, and 109 produced by further decomposing the product ions with a m/z of 327 by CID (collision-induced dissociation). The internal standard Tetranor-PGDM-d6 (mass number 334) was detected by using any of the product ions with a m/z (mass number÷charge) of 161, 149, and 109 produced by further decomposing the product ions with a m/z of 333 by CID (collision-induced dissociation). […] Area calculations were performed for the peaks originating from the Tetranor-PGDM in the resulting mass chromatogram, and each peak was quantified from the standard curve created from the standard sample. In the quantification, correction was made by using the area value of the peak originating from the Tetranor-PGDM-d6 introduced as the internal standard for the correction of the extraction efficiency and ionization efficiency in each analysis.
# CXMDJ [2] = assay: Symptom scores of muscular dystrophy dog CXMDJ; type: in vivo
# mdx mice [3] = assay: Urine Tetranor-PGDM concentration in mdx mice (HPLC-MS/MS); type: in vivo, mouse; conditions: oral, 30 mg/kg for 5 days (FIG. 1, left)
# Procedure: (§1) Muscular dystrophy mouse: mdx (C57Bl/10 ScSn; available from JAX Laboratories)
# A solvent (0.5% methylcellulose solution) or test compound 1 was orally administered to mdx mice, 4 weeks old, for 5 days at a dose of 30 mg/kg. Using a metabolism cage for mice, urine was collected over the course of about 12 hours before the administration of test compound 1 and 5 days after the administration. For comparison, urine was also collected from wild-type mice of the same weeks old and the same lineage used as a control. The creatinine concentration in urine was measured using a measurement kit (L-type Wako CRE M, Wako Pure Chemical Industries, Ltd.). […]
# The pretreated urine sample was used for the measurement of Tetranor-PGDM levels. […] MRM (Multiple Reaction Monitoring) was used for quantification. In this technique, only the true parent ions are specifically selected from the mass of the parent ions (precursor ion) and of the fragment ions resulting from CID (collision-induced dissociation), and the parent ions are accurately quantified from the area of the selected ions. […] The fragment ions are then isolated in a second mass analyzer (Q3), and detected at the detector provided downstream. […] Area calculations were performed for the peaks originating from the Tetranor-PGDM in the resulting mass chromatogram, and each peak was quantified from the standard curve created from the standard sample. […]
# mdx mice [4] = assay: Forefoot grip strength of mdx mice (symptom evaluation); type: in vivo, mouse; conditions: 4 weeks old, oral, 30 mg/kg for 5 days, solvent group showed no significant change (FIG. 1, right)
# Procedure: as §1
# A solvent (0.5% methylcellulose solution) or test compound 1 was orally administered to mdx mice, 4 weeks old, for 5 days at a dose of 30 mg/kg. Using a metabolism cage for mice, urine was collected over the course of about 12 hours before the administration of test compound 1 and 5 days after the administration. For comparison, urine was also collected from wild-type mice of the same weeks old and the same lineage used as a control. The creatinine concentration in urine was measured using a measurement kit (L-type Wako CRE M, Wako Pure Chemical Industries, Ltd.).
# For the symptom evaluation of the mdx mice, the forefoot grip strength was measured using a grip dynamometer for mice (traction meter; BrainSienceldea). Each measurement was made in 2 min, and the mean value of five trials was calculated.
# [5] = CXMDJ switched to solvent after about 1 year of oral test compound 2 (FIG. 2, left)
# [6] = CXMDJ switched to the inhibitor after about 1 year of oral solvent (FIG. 2, right)
SMILES,"Tetranor-PGDM concentration in urine (CXMDJ [1]; CXMDJ dog orally administered with test compound 2, compared with CXMDJ dog (Table 1))",urine Tetranor-PGDM concentration (CXMDJ [1]; [5]),urine Tetranor-PGDM concentration (CXMDJ [1]; [6]),Tetranor-PGDM concentration (CXMDJ [1]; urine of HPGDS inhibitor-administered CXMDJ dog (CXMDJ dog without inhibitor 27.8)),symptom scores (CXMDJ [2]; [5]),symptom scores (CXMDJ [2]; [6]),Tetranor-PGDM concentration in urine (mdx mice [3]),forefoot grip strength (mdx mice [4])
CON(C)C(=O)c1[nH]c(C)c(-c2nc3ccc(C(=O)c4ccccc4)cc3[nH]2)c1C [Test compound 2],decreased,increased,decreased,17.9 ng/mL,worsened,improved,–,–
"c1ccc(C(OC2CCN(CCCc3nnn[nH]3)CC2)c2ccccc2)cc1 [Test compound 1, 4-benzhydryloxy-1-{3-(1H-tetrazol-5-yl)-propyl}piperidine]",–,–,–,–,–,–,significantly lower,significantly increased
